# Data taken from patent publication US20240174680A1, “CDK2 INHIBITORS AND METHODS OF USING THE SAME” (Cedilla Therapeutics, Inc., priority 2021, published 2024).
# Biological target: CDK2/Cyclin E1 (Homo sapiens, UniProt P24941)
# Test: CDK2/Cyclin E1 Caliper LabChip EZ Reader mobility shift assay
# Assay type: biochemical
# Parameters: purchased Eurofins 14-475
# Conditions: read-out: Caliper Assay (CDK2/CCNE1): IC50
# Experimental: Inhibition of CDK2/Cyclin E1 activity in the presence of compounds of the present disclosure was evaluated using a Caliper LabChip® EZ Reader mobility shift assay. In the assay, CDK2/Cyclin E1 (Eurofins, 14-475) catalyzed the phosphorylation of a fluorescently tagged peptide 5-FAM-QSPKKG-CONH2 (PerkinElmer, FL Peptide 18) which induced a difference in capillary electrophoresis mobility. The peptide substrate and product were measured, and the conversion ratio was used to determine the inhibition (as % activity and IC50 values) of CDK2/Cyclin E1. Reactions contained 50 mM HEPES pH 7.5, 10 mM MgCl2, 1 mM EDTA, 2 mM DTT, 0.01% Brij35, 0.5 mg/mL BSA, 0.1% DMSO, 2.5 nM CDK2/Cyclin E1, 100 μM ATP, and 1.5 μM fluorescent peptide substrate.
# Dose titrations of inhibitors in 100% DMSO were combined with 3.25 nM CDK2/Cyclin E1 and 130 μM of ATP in reaction buffer. The mixtures were incubated for 30 minutes before the addition of fluorescent peptide substrate to initiate the kinase reaction. The final conditions were 2.5 nM CDK2/Cyclin E1, 100 μM ATP, and 1.5 μM fluorescent peptide. The reactions were stopped after 100 minutes with the addition of EDTA (400 mM final EDTA concentration). The stopped reactions were analyzed on a Caliper LabChip® EZ Reader II. The conversion ratios were normalized to yield % activity, plotted against compound concentration, and fit to a four-parameter equation to determine the IC50 for each compound.
row,Compound,IC50 [nM]
1,CC1(C)C[C@@H]1C(=O)N1CC2(CN(C(=O)c3cnn(Cc4ccccc4)c3)C[C@H]2C(=O)N[C@H]2CCc3cc(Cl)ccc32)C1 [I-120A],100 to 1000
2,COC(=O)[C@H](CO)NC(=O)[C@@H]1CN(C(=O)c2cnn(Cc3ccccc3)c2)CC12CN(C(=O)[C@H]1CC1(C)C)C2 [I-209A],1000 to 10000
3,CNC(=O)[C@@H](NC(=O)[C@H]1CN(Cc2cnco2)CC12CN(C(=O)[C@H]1CC1(C)C)C2)[C@@H](C)OCc1ccccc1 [I-78B],> 10000
4,CNC(=O)[C@@H](NC(=O)[C@@H]1CN(C(=O)c2cnn(Cc3ccc(C(=O)O)cc3)c2)CC12CN(C(=O)[C@H]1CC1(C)C)C2)[C@@H](C)OCc1ccccc1 [I-476],1000 to 10000
5,CNC(=O)[C@@H](NC(=O)[C@@H]1CN(C(=O)c2cnn(Cc3ccccc3)c2)CC12CN(C(=O)C1(F)CC1)C2)[C@@H](C)OCc1ccccc1 [I-71A],100 to 1000
6,CC1(C)C[C@@H]1C(=O)N1CC2(CN(C(=O)c3cnn(Cc4ccccc4)c3)C[C@H]2C(=O)N2CCC[C@@H](OCC3CCCCC3)C2)C1 [I-254],> 10000
7,CNC(=O)[C@@H](NC(=O)[C@H]1CN(C(=O)c2cnn(Cc3ccccc3)c2)CC12CN(C(=O)C(C)C)C2)[C@@H](C)OCc1ccccc1 [I-54B],> 10000
8,CC1(C)C[C@@H]1C(=O)N1CC2(CN(C(=O)c3cnn(Cc4ccccc4)c3)C[C@H]2C(=O)Nc2cccc(-c3ccccc3)c2)C1 [I-63A],1000 to 10000
9,COCCNC(=O)[C@@H]1CN(C(=O)c2cnn(Cc3ccccc3)c2)CC12CN(C(=O)[C@H]1CC1(C)C)C2 [I-122A],> 10000
10,CC1(C)C[C@@H]1C(=O)N1CC2(CN(C(=O)c3cnn(Cc4ccccc4)c3)C[C@H]2C(=O)NCCOCc2ccccc2)C1 [I-96A],100 to 1000
11,CC1(C)C[C@@H]1C(=O)N1CC2(CN(C(=O)c3cnn(Cc4ccccc4)c3)C[C@H]2C(=O)N2CCO[C@@H](Cc3ccccc3)C2)C1 [I-210],> 10000
12,C[C@H](NC(=O)[C@H]1CN(C(=O)c2cnn(Cc3ccccc3)c2)CC12CN(C(=O)[C@H]1CC1(C)C)C2)c1cccc(F)c1 [I-127B],> 10000
13,Cc1noc([C@H](C)NC(=O)[C@@H]2CN(C(=O)c3cnn(Cc4ccccc4)c3)CC23CN(C(=O)[C@H]2CC2(C)C)C3)n1 [I-158A],> 10000
14,CC1(C)C[C@@H]1C(=O)N1CC2(CN(C(=O)c3cnn(Cc4ccccc4)c3)C[C@H]2C(=O)NC[C@H]2CC[C@H](C)CC2)C1 [I-382],1000 to 10000
15,C[C@@H](OCc1ccccc1)[C@H](NC(=O)C1CN(C(=O)c2cnn(Cc3ccccc3)c2)CC12CN(C(=O)[C@H]1CC1(C)C)C2)C(=O)N1CCCC(CO)C1 (stereo partly shown) [I-98],10 to 100
16,Cc1ccc2[nH]c(CNC(=O)C3CN(C(=O)c4cnn(Cc5ccccc5)c4)CC34CN(C(=O)[C@H]3CC3(C)C)C4)nc2c1 (stereo partly shown) [I-278],1000 to 10000
17,CNC(=O)[C@@H](NC(=O)[C@@H]1CN(C(=O)c2cnn(Cc3ccccc3)c2)CC12CN(C(=O)CC1(COC)CC1)C2)[C@@H](C)OCc1ccccc1 [I-82A],> 10000
18,CC1(C)C[C@@H]1C(=O)N1CC2(CN(C(=O)c3cnn(Cc4ccccc4)c3)C[C@@H]2C(=O)NC2CCN(C(=O)c3ccccc3)CC2)C1 [I-61B],> 10000
19,CNC(=O)[C@@H](NC(=O)[C@@H]1CN(C(=O)c2n[nH]c3ccccc23)CC12CN(C(=O)[C@H]1CC1(C)C)C2)[C@@H](C)OCc1ccccc1 [I-112A],1000 to 10000
20,CC1(C)C[C@@H]1C(=O)N1CC2(CN(C(=O)c3cnn(Cc4ccccc4)c3)C[C@@H]2C(=O)Nc2ccc(Cc3ccccc3)nc2)C1 [I-168],1000 to 10000
21,C[C@@H](NC(=O)[C@H]1CN(C(=O)c2cnn(Cc3ccccc3)c2)CC12CN(C(=O)[C@H]1CC1(C)C)C2)c1cccc(F)c1 [I-128B],> 10000
22,CNC(=O)[C@@H](NC(=O)[C@@H]1CN(C(=O)c2cnn(Cc3ccccc3)c2)CC12CN(C(=O)CC(F)(F)F)C2)[C@@H](C)OCc1ccccc1 [I-87A],100 to 1000

# The next lines start with the values.
row,IC50 [nM],Compound
1,≤ 10,COC[C@H]1CCCN(C(=O)[C@@H](NC(=O)[C@@H]2CN(C(=O)c3cncs3)CC23CN(C(=O)[C@H]2CC2(C)C)C3)[C@@H](C)OC[C@H]2CC[C@H](OC(F)(F)F)CC2)C1 [I-435]
2,> 10000,"CNC(=O)[C@@H](NC(=O)[C@@H]1CN(C(=O)c2cnn(Cc3ccccc3)c2)CC12CN(C(=O)NC1CC1)C2)[C@@H](C)OCC1CCCCC1 [I-268, (S)-6-(1-benzyl-1H-pyrazole-4-carbonyl)-N8-((2S,3R)-3-(cyclohexylmethoxy)-1-(methylamino)-1-oxobutan-2-yl)-N2-cyclopropyl-2,6-diazaspiro[3.4]octane-2,8-dicarboxamide]"
3,1000 to 10000,CC(C)(O)C(NC(=O)[C@@H]1CN(C(=O)c2cncs2)CC12CN(C(=O)[C@H]1CC1(C)C)C2)c1cccc(C2CCOCC2)n1 (stereo partly shown) [I-423]
4,≤ 10,C[C@@H](OCC1CCCCC1)[C@@H](COC1CCOCC1)NC(=O)[C@@H]1CN(C(=O)c2cncs2)CC12CN(C(=O)[C@H]1CC1(C)C)C2 [I-331]
5,> 10000,CNC(=O)[C@@H](NC(=O)[C@@H]1CN(C(=O)c2scnc2C2CCCC2)CC12CN(C(=O)[C@H]1CC1(C)C)C2)[C@@H](C)OCC1CCCCC1 [I-224B]
6,≤ 10,C[C@@H](OCC1CCCCC1)[C@@H](COC1CCNCC1)NC(=O)[C@@H]1CN(C(=O)c2cncs2)CC12CN(C(=O)[C@H]1CC1(C)C)C2 [I-329]
7,≤ 10,C[C@@H](OCC1CCCCC1)[C@H](NC(=O)C1CN(C(=O)c2cnn(Cc3ccccc3)c2)CC12CN(C(=O)[C@H]1CC1(C)C)C2)C(=O)NCCC(=O)O (stereo partly shown) [I-353]
8,1000 to 10000,CNC(=O)[C@H](CCCC1CCCCC1)NC(=O)[C@H]1CN(C(=O)c2cnn(Cc3ccccc3)c2)CC12CN(C(=O)[C@H]1CC1(C)C)C2 [I-155B]
9,1000 to 10000,CNC(=O)[C@@H](NC(=O)[C@@H]1CN(C(=O)c2cncs2)CC12CN(CC1COC1)C2)[C@@H](C)OCC12CCC(CC1)OC2 [I-348]
10,1000 to 10000,C[C@@H](OCC1CCCCC1)[C@H](NC(=O)C1CN(C(=O)C2CCC(=O)NC2)CC12CN(C(=O)[C@H]1CC1(C)C)C2)C(=O)N1CCCCC1 (stereo partly shown) [I-265]
11,> 10000,CNC(=O)[C@@H](NC(=O)[C@@H]1CN(C(=O)c2scnc2C2CC2)CC12CN(C(=O)[C@H]1CC1(C)C)C2)[C@@H](C)OCC1CCCCC1 [I-185A]
12,≤ 10,CNC(=O)[C@@H](NC(=O)[C@@H]1CN(C(=O)c2cnn(Cc3ccccc3)c2)CC12CN(C(=O)[C@H]1CC1(C)C)C2)[C@@H](C)OCCC1CCCCC1 [I-125A]
13,≤ 10,CC(O[C@H](C)[C@H](NC(=O)[C@@H]1CN(C(=O)c2cncs2)CC12CN(C(=O)[C@H]1CC1(C)C)C2)C(=O)N1CCC(F)(F)CC1)C1CCC(F)(F)CC1 (stereo partly shown) [I-361]
14,100 to 1000,CNC(=O)[C@@H](NC(=O)[C@@H]1CN(C(=O)c2cncs2)CC12CN(C(=O)CC1CC1)C2)[C@@H](C)OCC1CCCCC1 [I-103A]
15,10 to 100,"CNC(=O)[C@@H](NC(=O)[C@@H]1CN(C(=O)c2cn[nH]c2)CC12CN(C(=O)[C@H]1CC1(C)C)C2)[C@@H](C)OCC1CCCCC1 [I-66A, (S)—N-((2S,3R)-3-(cyclohexylmethoxy)-1-(methylamino)-1-oxobutan-2-yl)-2-((S)-2,2-dimethylcyclopropane-1-carbonyl)-6-(1H-pyrazole-4-carbonyl)-2,6-diazaspiro[3.4]octane-8-carboxamide]"
16,≤ 10,COC1CCN(C(=O)[C@@H](NC(=O)[C@@H]2CN(C(=O)c3cncs3)CC23CN(C(=O)[C@H]2CC2(C)C)C3)[C@@H](C)OCC2CCC(F)(F)CC2)CC1 [I-385]
17,≤ 10,COC[C@@H]1CCCN(C(=O)[C@@H](NC(=O)C2CN(C(=O)c3cncs3)CC23CN(C(=O)[C@H]2CC2(C)C)C3)[C@@H](C)OCC2CCCCC2)C1 (stereo partly shown) [I-195]
18,≤ 10,C[C@@H](OCC1CCCCC1)[C@H](NC(=O)[C@@H]1CN(C(=O)c2cnn(Cc3ccccc3)c2)CC12CN(C(=O)[C@H]1CC1(C)C)C2)C(=O)N1CCC(c2nccs2)CC1 [I-445]
19,10 to 100,CNC(=O)[C@@H](NC(=O)[C@@H]1CN(C(=O)c2cncs2)CC12CN(C(=O)[C@H]1CC1(C)C)C2)[C@@H](C)OCC1CCCCC1 [I-129A]
20,≤ 10,COC[C@H]1CCCN(C(=O)[C@@H](NC(=O)[C@@H]2CN(C(=O)c3cncs3)CC23CN(C(=O)[C@H]2CC2(C)C)C3)[C@@H](C)O[C@@H](C)C2CCCCC2)C1 [I-369]
21,> 10000,CNC(=O)[C@@H](NC(=O)[C@@H]1CN(C(=O)c2cncs2)CC12CN(CC(C)(C)C)C2)[C@@H](C)OCC12CCC(CC1)OC2 [I-347]
22,≤ 10,"C[C@@H](OCC12CCC(CC1)OC2)[C@H](NC(=O)[C@@H]1CN(C(=O)c2cncs2)CC12CN(C(=O)[C@H]1CC1(C)C)C2)C(=O)N1CCC(C(F)(F)F)CC1 [I-454, (S)—N-((2S,3R)-3-((2-oxabicyclo[2.2.2]octan-4-yl)methoxy)-1-oxo-1-(4-(trifluoromethyl)piperidin-1-yl)butan-2-yl)-2-((S)-2,2-dimethylcyclopropane-1-carbonyl)-6-(thiazole-5-carbonyl)-2,6-diazaspiro[3.4]octane-8-carboxamide]"
23,> 10000,CNC(=O)[C@@H](NC(=O)[C@@]1(C)CN(C(=O)c2cnn(Cc3ccccc3)c2)CC12CN(C(=O)[C@H]1CC1(C)C)C2)[C@@H](C)OCC1CCCCC1 [I-499B]
24,1000 to 10000,CNC(=O)C(NC(=O)[C@@H]1CN(C(=O)c2cncs2)CC12CN(C(=O)[C@H]1CC1(C)C)C2)c1cccc(N2CC3(COC3)C2)n1 (stereo partly shown) [I-427]
